This passage reports oral bioavailability and apoptosis and differentiation results from patent publication US11642349B2, “Method for treating cancer” (Epizyme, Inc., priority 2015, dated 2023).

Each structure is given as a SMILES string.

The nature of one data set: oral bioavailability. Conditions: in vivo.
The subject of another data set is MRT xenograft. In words: MRT xenograft-bearing mice. It is filed as in vivo.
Data set [1] deals with INI1-deleted malignant rhabdoid tumor (MRT) models. As to the kind of experiment: INI1-deleted malignant rhabdoid tumor (MRT) models in vitro. It is filed as cell-based.

In the case of `CCN(c1cc(-c2ccc(CN3CCOCC3)cc2)cc(C(=O)NCc2c(C)cc(C)[nH]c2=O)c1C)C1CCOCC1` [EPZ-6438], the oral bioavailability entry in the data set “oral bioavailability” was “orally bioavailable”. Also, the apoptosis and differentiation entry in the data set on MRT xenograft was “induce apoptosis and differentiation”; in data set [1], “induce apoptosis and differentiation”.
